Data on 89 molecules can be found in PubChem BioAssay AID463204 (Broad Institute, 2010).

The source made the active and inactive calls.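 Rule for the calls: active = AC50 no more than ten times the top concentration tested, that is within one log above it; inconclusive = flat curve fit with activity between 30% and 70%, or invalid poor fit; inactive = AC50 beyond ten times the top tested dose.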

As usually defined, the AC50 is the midpoint of the concentration-response curve, whichever way the signal moves.

For this assay, the system named is S. cerevisiae Mot1-301 ts growth rescue, BacTiter-Glo ATP luminescence. The assay can be described thus: growth rescue of Mot1-301 ts yeast, confirmation, SUMOylation pathway inhibitor project, whole organism, S. cerevisiae, Mot1-301 ts mutant, luminescence, dose retest (AID 463204).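 Note: growth at restrictive 38.5 degrees C of Mot1-301 OY566 strain; actives raise luminescence by restoring growth of the ts mutant at high temperature.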
For the molecule `COC(=O)[C@@]12CCCCN1[C@H](c1ccc(-c3ccc(C(C)=O)cc3)cc1)[C@@H]1C(=O)N(C)C(=O)[C@@H]12`, the AC50 is > 42 µM (inactive).

Regarding `O=C(N=C1SC2CS(=O)(=O)CC2N1c1ccc(F)c(Cl)c1)C1CC1` (centres undefined), the AC50 was > 42 µM (inactive).

Take `CCCCCCOc1ccc(N2C(=O)CC(N3CCC(C(=O)OCC)CC3)C2=O)cc1` (centres undefined): the AC50 is 4.96 µM.

As to `COc1ccc2[nH]c(=O)c(CN(C(=O)c3ccccn3)c3ccccc3)cc2c1`, the AC50 is > 42 µM (inactive).

Take `CN(C(=O)COC(=O)c1cc2ccccc2cc1O)c1c(N)n(Cc2ccccc2)c(=O)[nH]c1=O`: the AC50 is > 42 µM (inactive).

Regarding `O=C(c1ccccc1)C(CN1CCCC1)c1ccccc1` (centres undefined), the AC50 is 4.34 µM.

Take `CN(CC(=O)NCc1cccs1)S(=O)(=O)c1cccc2nsnc12`: the AC50 is > 42 µM (inactive).

On to `COCCN1C(=O)/C(=C/c2cc3c(cc2Br)OCO3)NC1=S`, for which the AC50 was > 42 µM (inactive).

Take `Cc1nc2ccccc2c2ncccc12`: the AC50 was > 42 µM (inactive).

Consider `CN(C)CCOC(=O)CCc1ccccc1`, for which the AC50 was > 42 µM (inactive).

Turning to `Cc1cccc(OCCC(=O)Nc2ccc(F)c(F)c2)c1`, the AC50 is > 42 µM (inactive).

As to `CN(c1ccccc1)c1ccc(/C=C/[N+](=O)[O-])cc1`, the AC50 is 5.85 µM.

For `Cc1ccc(NC2c3ncccc3C(=O)N2C2CCCCC2)cc1C` (centres undefined), the concentration at half-maximal activity (AC50) is 32.5 µM.

Regarding `Cc1ccn2cc(-c3cnoc3C)nc2c1`, the AC50 is > 42 µM (inactive).

As to `COc1ccc(-c2c(C)nn3c(C)cc(C)nc23)cc1`, the AC50 is > 42 µM (inactive).

Take `Cc1c(C(=O)NC(C)c2ccc(-n3ccnc3)cc2)cccc1[N+](=O)[O-]` (centres undefined): the AC50 was > 42 µM (inactive).

On to `O=c1c2ccccc2nc(SCc2ccc([N+](=O)[O-])cc2)n1CCCO`, for which the AC50 is > 42 µM (inactive).

As to `O=C(CSc1nc(O)cc(=O)n1-c1ccccc1)NC1CCCCC1`, the AC50 is > 42 µM (inactive).

In the case of `COc1ccc(NC(=O)COc2cc(C)cc(C)c2)cc1S(=O)(=O)N1CCCCC1`, the AC50 was > 42 µM (inactive).

With `Cc1nn(C)c(C)c1/C=N/NC(=O)C(C)(C)Oc1ccc(Cl)cc1`, the AC50 was > 42 µM (inactive).

Regarding `O=C(COc1ccccc1)Nc1cccc(-c2nnc(-c3ccccc3)o2)c1`, the AC50 is > 42 µM (inactive).

As to `COC(=O)C1=C(C)N(Cc2ccccc2)C(=S)N[C@H]1c1cccc(F)c1`, the AC50 is > 42 µM (inactive).

For the molecule `CN(CC(=O)Nc1sccc1C#N)Cc1ccccc1`, the AC50 is > 42 µM (inactive).

Take `O=C(CSc1nnc(COc2ccccc2Cl)o1)NC(=O)NC1CCCC1`: the AC50 was > 42 µM (inactive).

As for `COc1ccc(Cc2nnc(NCCO)[nH]c2=O)cc1`, the AC50 is > 42 µM (inactive).

For the molecule `S=c1[nH]nc(-c2ccccn2)n1/N=C/c1ccccc1`, the AC50 was > 42 µM (inactive).

For the molecule `CCOC(=O)C1ON2CCCCC2C1(O)C(F)(F)F` (centres undefined), the AC50 was > 42 µM (inactive).

In the case of `N/C(=N\NC(=O)c1sccc1OCc1ccc(Cl)cc1Cl)c1ccccn1`, the AC50 is > 42 µM (inactive).

In the case of `O=C(CCCn1cnc([N+](=O)[O-])n1)Nc1cccc2ccccc12`, the AC50 is > 42 µM (inactive).

As for `C[n+]1c(-c2ccccc2)cc(CCCCc2cc(-c3ccccc3)[n+](C)c(-c3ccccc3)c2)cc1-c1ccccc1`, the AC50 was > 21 µM (inactive).

For the molecule `CC1c2cc3c(cc2CCN1CC(=O)Nc1ccccc1)OCCCO3` (centres undefined), the AC50 is > 42 µM (inactive).

As to `CCOc1ccc(C(=O)Nc2ccc(CN3CCOCC3)cc2)cc1Br`, the AC50 was > 21 µM (inactive).

Consider `O=C(COC(=O)c1ccccc1SCC(=O)N1CCCC1)NC1CCCCC1`, for which the AC50 is > 42 µM (inactive).

Regarding `Cc1ccc(NC(=S)NC(NC(=O)c2ccccc2C)C(Cl)(Cl)Cl)c(C)c1` (centres undefined), the AC50 was > 42 µM (inactive).

Take `COc1ccc(CC(=O)NCCN2CCOCC2)cc1`: the AC50 was > 42 µM (inactive).

Turning to `COc1cc(/C=C(\NC(=O)c2ccccc2)C(=O)Nc2nccs2)ccc1OC(C)=O`, the AC50 was > 42 µM (inactive).

Turning to `CC(=O)c1ccccc1C(=O)N1CCCC(N2CCN(Cc3ccc4c(c3)OCO4)CC2)C1` (centres undefined), the AC50 was > 42 µM (inactive).

Take `Cc1ccccc1C(=O)NNC(=S)Nc1cccc(C(F)(F)F)c1`: the AC50 is > 42 µM (inactive).

On to `N#CC1=C(N)Nc2ncnn2C1c1ccc([N+](=O)[O-])cc1` (centres undefined), for which the AC50 is > 42 µM (inactive).

Regarding `COc1ccc(NC2CCCN(C(=O)c3csc(C)n3)C2)cc1` (centres undefined), the AC50 was > 42 µM (inactive).

As to `CC(C)c1ccc(NC(=O)COc2nnc(-c3cccs3)c(-c3cccs3)n2)cc1`, the AC50 was > 42 µM (inactive).

As for `CCOc1ccc(-c2nc3n(c(=O)c2C#N)CCS3)cc1`, the AC50 is > 42 µM (inactive).

`Cc1cccc(-[n+]2c(-c3cccc(Br)c3)[nH]c3nc4ccccc4nc32)c1`: the AC50 was > 42 µM (inactive).

Turning to `O=C(Cc1ccc(Cl)cc1)NC(=S)Nc1ccccc1N1CCOCC1`, the AC50 was > 42 µM (inactive).

`CC1(C)CC(=O)c2cnc(NC(=O)CSc3nc4ccccc4o3)nc2C1`: the AC50 is > 42 µM (inactive).

Regarding `O=C(O)c1ccc(COc2c(F)c(F)cc(F)c2F)cc1`, the AC50 is > 42 µM (inactive).

`O=C1NC(Cc2c[nH]c3ccccc23)C(=O)N1Cc1ccc(CN2C(=O)NC(Cc3c[nH]c4ccccc34)C2=O)cc1` (centres undefined): the AC50 was > 42 µM (inactive).

On to `Oc1c(Br)cc(Br)cc1C=Nc1ccc2[nH]ncc2c1`, for which the concentration at half-maximal activity (AC50) is 4.76 µM.

For `CS(=O)(=O)N1CCC(Oc2ccccc2C(=O)N2CCNC(=O)C2)CC1`, the AC50 was > 42 µM (inactive).

For the molecule `CC1Cc2ccccc2N1C(=O)CNc1cccc(S(=O)(=O)N2CCCC2)c1` (centres undefined), the AC50 was > 42 µM (inactive).

For the molecule `O=C(COC(=O)Cc1ccsc1)NC1CCCCCC1`, the AC50 was > 42 µM (inactive).

Take `CC(=O)NCc1c(Cl)cccc1-n1cccc1`: the AC50 was > 42 µM (inactive).

For `COC(=O)c1ccccc1NC(=O)c1cnn2c(C)cc(C)nc12`, the AC50 is > 42 µM (inactive).

`O=C(OCCCCOC(=O)c1ccccc1)c1ccccc1`: the AC50 was > 42 µM (inactive).

With `CCNC(=S)NNC(=O)c1ccc(=O)n(Cc2ccccc2)c1`, the AC50 was > 42 µM (inactive).

With `CCOc1cc(/C=C2\NC(=O)NC2=O)ccc1OC(C)C(=O)O` (centres undefined), the AC50 is > 42 µM (inactive).

For `COc1ccc(-n2c(-c3ccccc3)nc3ccccc3c2=O)cc1`, the AC50 was > 42 µM (inactive).

Take `CN1C(=S)SC2CS(=O)(=O)CC21C` (centres undefined): the AC50 was > 21 µM (inactive).

With `O=C(NNS(=O)(=O)c1c(F)cc(F)c(Cl)c1F)C12CC3CC(CC(C3)C1)C2`, the half-maximal activity concentration (AC50) was 3.45 µM.

Turning to `O=C(O)C1CCCCC1C(=O)Nc1ccc(S(=O)(=O)N2CCCC2)cc1` (centres undefined), the AC50 is > 42 µM (inactive).

For `N=c1sccn1CC(=O)Nc1cccc(S(N)(=O)=O)c1`, the AC50 was > 42 µM (inactive).

Take `CCOc1ccc(NC(=O)CN(C)C(=O)c2ccc(OCc3ccccc3)c(OC)c2)cc1OCC`: the AC50 was > 42 µM (inactive).

Turning to `NS(=O)(=O)c1ccc(CCNC(=O)CN2CCN(c3ccc(F)cc3)CC2)cc1`, the AC50 is > 42 µM (inactive).

Regarding `COc1ccc(C2C3=C(CC(C)(C)CC3=O)Nc3n[nH]c(C)c32)cc1` (centres undefined), the AC50 was > 42 µM (inactive).

In the case of `N[C@@H](Cc1ccc(O)c(I)c1)C(=O)O`, the AC50 was > 42 µM (inactive).

For the molecule `CC(C)(CNC(=O)c1cccs1)CNC(=O)c1cccs1`, the AC50 was > 42 µM (inactive).

As for `CCOc1ccccc1C(=O)N(Cc1cccs1)C1CCS(=O)(=O)C1` (centres undefined), the AC50 was > 42 µM (inactive).

In the case of `Cc1nn(C)cc1S(=O)(=O)Nc1ncccn1`, the AC50 was > 42 µM (inactive).

Consider `O=C1c2ccccc2NC(c2ccccc2O)N1O` (centres undefined), for which the AC50 is > 42 µM (inactive).

For `CCCN(CC1CC1)C(=O)COc1ccccc1C(=O)NCc1ccccc1`, the AC50 is > 42 µM (inactive).

In the case of `COc1cccc(NC(=O)CNC(=O)c2ccc(C)cc2)c1`, the AC50 is > 42 µM (inactive).

For the molecule `C=CCn1cc(C(C)=O)c(=O)[nH]c1=O`, the AC50 is > 42 µM (inactive).

In the case of `CCCCn1c(=O)[nH]c(=O)c2c1nc(COc1ccc(C#N)cc1)n2CCC`, the AC50 was > 42 µM (inactive).

As to `CCn1nc(C(=O)OCc2cccc(S(=O)(=O)N(C)C)c2)c2ccccc2c1=O`, the AC50 was > 42 µM (inactive).

As to `Cc1ccc(C(=O)/C=C/c2ccc(-c3ccccc3[N+](=O)[O-])o2)cc1`, the AC50 was > 42 µM (inactive).

As to `O=C(Nc1ccccc1N1CCN(c2ccccc2)CC1)c1cccc(F)c1`, the AC50 was > 42 µM (inactive).

`N#Cc1c(-c2ccco2)cc(-c2cccnc2)nc1N`: the AC50 is > 42 µM (inactive).

Turning to `CC(C)Sc1ccc(C(=O)Nc2ccc(F)cc2F)cn1`, the AC50 is > 42 µM (inactive).

In the case of `Cc1cccc(N(C(=O)c2ccc(CN3CCOCC3)o2)C(C(=O)NC2CCCCC2)c2ccc(F)cc2)c1` (centres undefined), the AC50 was > 42 µM (inactive).

Regarding `O=C(NCc1ccco1)C1CC(=O)N(c2ccc(Cl)cc2)C1` (centres undefined), the AC50 was > 42 µM (inactive).

In the case of `O=C(CCNC(=O)c1ccc(Br)cc1)NCc1ccccc1F`, the AC50 is > 42 µM (inactive).

Turning to `CCOC(=O)C1=C(C)NC(=O)CC1c1cc2c(cc1[N+](=O)[O-])OCO2` (centres undefined), the AC50 was > 42 µM (inactive).

With `CC(=O)Nc1ccc(/C(C)=N/NC(=O)c2ccncc2)cc1`, the AC50 was > 42 µM (inactive).

`Cc1ccc(-c2nnc(SCC#N)n2N)cc1`: the AC50 was > 42 µM (inactive).

Consider `C=CCOC(=O)C(C#N)c1nc2ccccc2nc1N1CCN(Cc2ccccc2)CC1` (centres undefined), for which the AC50 was > 42 µM (inactive).

For `O=C1NC(c2ccccc2)C(C(=O)c2cccs2)C(O)(C(F)(F)F)N1` (centres undefined), the AC50 is > 42 µM (inactive).

With `Cn1c(=O)nc2n(Cc3ccccc3)c3ccccc3cc-2c1=O`, the AC50 is > 42 µM (inactive).

On to `CS(=O)(=O)N1CCCC(C(=O)NCc2ccco2)C1` (centres undefined), for which the AC50 was > 42 µM (inactive).

For `CCN(CC)CCCN(Cc1cc2cc(OC)ccc2[nH]c1=O)C(=O)Nc1ccc(F)cc1`, the AC50 was > 42 µM (inactive).
